Test results: US5110815A, “5-amino-5,6,7,8-tetrahydroquinolines and related compounds and pharmaceutical use” (Hoechst-Roussel Pharmaceuticals Inc., priority 1990, dated 1992)
Structures can show the parent of a compound that is named as a salt.

Columns and labels:
[1] = target: T1, Acetylcholinesterase (Rattus norvegicus, UniProt P37136); assay: in vitro inhibition of acetylcholinesterase activity (modified Ellman assay, rat corpora striata homogenate); format: biochemical, Male Wistar rats; settings: acetylthiocholine 5 millimolar final, pH 7.2, 10 min preincubation at 37° C
T1 construct: corpora strita dissected free, weighed and homogenized in 19 volumes; from tissue; host or cells: corpora striata of male Wistar rats, crude homogenate in 0.05 M phosphate buffer pH 7.2
Experimental: In this assay, a modification of a test described by G. L. Ellman, et al., Biochem. Pharmacol., 7, 88 (1961), the following reagents are prepared and employed:
1. 0.05M Phosphate Buffer (pH 7.2)
A solution of monobasic sodium phosphate monhydrate (6.85 g) in distilled water (100 ml) is added to a solution of dibasic sodium phosphate heptahydrate (13.4 g) and distilled water (100 ml) until a pH of 7.2 was attained. The solution was diluted 1 to 10 with distilled water.
The 0.05M Phosphate Buffer (pH 7.2) was added to acetylthiocholine (198 mg) to a total volume of 100 ml, i.e., a quantity sufficient (gs) to 100 ml.
3. 5,5-Dithiobisnitrobenzoic Acid in Buffer
The 0.05M Phosphate Buffer (pH 7.2) was added to 5,5-dithiobisnitrobenzoic acid to a total volume of 100 ml, i.e., a quantity sufficient (gs) to 100 ml.
4. Stock Solution of Drug
A 2 millimolar stock solution of the test drug is prepared in a quantity sufficient of a suitable solvent, either acetic acid or dimethyl sulfoxide to volume with 5,5-Dithiobisnitrobenzene Acid in Buffer. Stock Solution of Drug is serially diluted (1:10) so that the final cuvette concentration is 10^-4 molar.
Male Wistar rats are decapitated, brains rapidly removed, corpora strita dissected free, weighed and homogenized in 19 volumes (approximately 7 mg potein/ml) of 0.05M phosphate Buffer (pH 7.2) using a Potter-Elvehjem homogenizer. A 25 μl aliquot of this suspension is added to 1 ml of the vehicle or various concentrations of the test drug and preincubated for 10 minutes at 37° C. Enzyme activity is measured with a Beckman DU-50 spectrophotometer with the following software and instrument settings:
1. Kinetics Soft-Pac™ Module #598273;
6. Cuvettes--2 ml cuvettes using auto 6--sampler;
7. Blank--1 for each substrate concentration;
8. Interval time--15 seconds (15 or 30 seconds for kinetics);
9. Total time--5 minutes (5 or 10 minutes for kinetics);
13. Results--yes (gives slope); and
Reagents are added to the blank and sample cuvettes as follows:
Blank values are determined for each run to control for non-enzymatic hydrolysis of substrate and these values are automatically subtracted by the Kindata program available on kinetics soft-pac module. This program also calculates the rate of absorbance change for each cuvette.
5,5-Dithiobisnitrobenzoic Acid concentration is 0.5 millimolar yielding 0.25 millimolar final concentration. [formula]

[2] = test system: scopolamine induced memory deficits; assay: dark avoidance assay (reversal of scopolamine induced memory deficit); format: in vivo, male CFW mice; settings: sc, scopolamine 3.0 mg/kg sc
Description: The 5-amino-5,6,7,8-tetrahydroquinolines and related compounds of the present invention are useful as agents for the relief of memory dysfunction, particularly dysfunctions associated with decreased cholinergic activity such as those found in Alzheimer's disease. […] In this assay, three groups of 15 male CFW mice were used, a vehicle/vehicle control group, a scopolamine/vehicle group, and a scopolamine/drug group. Thirty minutes prior to training, the vehicle/vehicle control group received normal saline subcutaneously, and the scopolamine/vehicle and scopolamine/drug groups received scopolamine subcutaneously (3.0 mg/kg, administered as scopolamine hydrobromide). Five minutes prior to training, the vehicle/vehicle control and scopolamine/vehicle groups received distilled water and the scopolamine/drug group received the test compound in distilled water.
The training/testing apparatus consisted of a plexiglass box approximately 48 cm long, 30 cm high and tapering from 26 cm wide at the top to 3 cm wide at the bottom. The interior of the box was divided equally by a vertical barrier into a light compartment (illuminated by 25-watt reflector lamp suspended 30 cm from the floor) and a dark compartment (covered). There was a hole at the bottom of the barrier 2.5 cm wide and 6 cm tall and a trap door which could be dropped to prevent an animal from passing between the two compartments. A Coulbourn Instruments small animal shocker was attached to two metal plates which ran the entire length of the apparatus, and a photocell was placed in the dark compartment 7.5 cm from the vertical barrier and 2 cm off the floor. The behavioral session was controlled by PDP 11/34 minicomputer.
At the end of the pretreatment interval, an animal was placed in the light chamber directly under the light fixture, facing away from the door to the dark chamber. The apparatus was then covered and the system activated. If the mouse passed through the barrier to the dark compartment and broke the photocell beam within 180 seconds, the trap door dropped to block escape to the light compartment and an electric shock was administered at an intensity of 0.4 milliamps for three seconds. The animal was then immediately removed from the dark compartment and placed in its home cage. […] The latency in seconds for each mouse was recorded.
The test day latency in seconds for each animal was recorded and the animals were then discarded.
The high degree of variability (due to season of the year, housing conditions, and handling) found in one trial passive avoidance paradigm is well known. To control for this fact, individual cutoff (CO) values were determined for each test, compensating for interest variability. […] Thus, the CO value was defined as the second highest latency time in the control group to more accurately reflect the 1/15 expected control responders in each test group. Experiments with a variety of standards repeated under a number of environmental conditions led to the development of the following empirical criteria: for a valid test, the CO value had to be less than 120 sec and the vehicle/vehicle control group had to have at least 5/15 animals with latencies greater than CO. For a compound to be considered active the scopolamine/compound group had to have at least 3/15 mice with latencies greater than CO.
The results of the dark avoidance test are expressed as the number of animals per group (%) in which this scopolamine induced memory deficit is blocked as measured by an increase in the latency period.

T1 sequence (P37136 32-614): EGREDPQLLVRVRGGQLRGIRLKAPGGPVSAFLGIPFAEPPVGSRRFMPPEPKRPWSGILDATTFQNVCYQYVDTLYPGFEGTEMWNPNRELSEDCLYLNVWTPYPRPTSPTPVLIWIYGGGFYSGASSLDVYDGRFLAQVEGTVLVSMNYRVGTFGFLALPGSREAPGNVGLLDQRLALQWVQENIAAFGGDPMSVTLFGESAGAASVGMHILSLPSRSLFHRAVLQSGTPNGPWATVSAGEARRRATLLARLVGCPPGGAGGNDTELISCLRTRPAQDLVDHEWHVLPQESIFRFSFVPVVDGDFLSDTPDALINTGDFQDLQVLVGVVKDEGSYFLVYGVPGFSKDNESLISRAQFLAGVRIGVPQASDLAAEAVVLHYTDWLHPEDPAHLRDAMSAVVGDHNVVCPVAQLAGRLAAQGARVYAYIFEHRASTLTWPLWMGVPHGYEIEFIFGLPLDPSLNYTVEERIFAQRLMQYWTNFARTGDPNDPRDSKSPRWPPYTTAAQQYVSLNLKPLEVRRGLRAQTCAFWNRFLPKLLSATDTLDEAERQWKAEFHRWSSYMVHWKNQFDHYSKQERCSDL

Structure (SMILES): CCCn1c2c(ccc1=O)C(NCCc1ccccc1)CCC2 (stereo not shown) [5,6,7,8-Tetrahydro-5-[(2-phenylethyl)amino]-1-propyl-2(1H)-quinolinone fumarate]
- IC50 [1]: 3.1 µM

Structure (SMILES): CC(=O)N(OCc1ccccc1)C1CCCc2nc(OCc3ccccc3)ccc21.Cl (stereo not shown) [N-(Phenylmethoxy)-N-[5,6,7,8-tetrahydro-2-(phenylmethoxy)-5-quinolinyl]acetamide hydrochloride]
- Percent of Animals with Scopolamine Induced Memory Deficit Reversal ([2]; dose 1.0 mg/kg): 20%

Structure (SMILES): COc1ccc(CCNC2CCCc3c2ccc(=O)n3C)cc1 (stereo not shown) [5,6,7,8-Tetrahydro-5-[[2-(4-methoxyphenyl)ethyl]amino]-1-methyl-2(1H)-quinolinone]
- Percent of Animals with Scopolamine Induced Memory Deficit Reversal ([2]; dose 0.3 mg/kg): 27%
- IC50 [1]: 9.6 µM

Structure (SMILES): Cn1c2c(ccc1=O)C(NCCc1ccc(Cl)c(Cl)c1)CCC2 (stereo not shown) [5-[[2-(3,4-Dichlorophenyl)ethyl]amino]-5,6,7,8-tetrahydro-1-methyl-2(1H)-quinolinone]
- Percent of Animals with Scopolamine Induced Memory Deficit Reversal ([2]; dose 1.0 mg/kg): 21%
- IC50 [1]: 2.9 µM

Structure (SMILES): Cn1c2c(ccc1=O)C(NCCc1ccc(Cl)cc1)CCC2 (stereo not shown) [5-[[2-(4-Chlorophenyl)ethyl]amino]-5,6,7,8-tetrahydro-1-methyl-2(1H)-quinolinone]
- IC50 [1]: 6.6 µM

Structure (SMILES): CNC(=O)Oc1ccc2c(c1)[C@]1(C)CCN(C)[C@@H]1N2C [physostigmine, reference compound]
- Percent of Animals with Scopolamine Induced Memory Deficit Reversal ([2]; dose 0.31 mg/kg): 20%

Structure (SMILES): Cl.Cl.Cn1c2c(ccc1=O)C(NCCc1ccccc1)CCC2.O (stereo not shown) [5,6,7,8-Tetrahydro-1-methyl-5-[(2-phenylethyl)amino]-2(1H)-quinolinone dihydrochloride monohydrate]
- Percent of Animals with Scopolamine Induced Memory Deficit Reversal ([2]; dose 1.0 mg/kg): 33%

Structure (SMILES): CC(=O)NC1(C)CCCc2[nH]c(=O)ccc21 (stereo not shown) [N-(1,2,5,6,7,8-Hexahydro-5-methyl-2-oxo-5-quinolinyl)acetamide]
- Percent of Animals with Scopolamine Induced Memory Deficit Reversal ([2]; dose 0.16 mg/kg): 20%
